Consider one compound from patent publication US20260258039A1, “AROMATIC COMPOUND, METHOD FOR PREPARING SAME, AND USE THEREOF IN PREPARATION OF ESTROGEN RECEPTOR DEGRADER” (Hinova Pharmaceuticals Inc., priority 2022, published 2026).

Data set [1] is described as follows: Pharmacokinetics in female ICR mice. The conditions noted are these: female, ICR, mouse, plasma, po, 3 mg/kg.
Protocol: Pharmacokinetic experimental steps: A suitable amount of compound to be administered was weighed, and after the final volume required was calculated, a drug solution with corresponding concentration was prepared using the medium (DMSO/HS-15/Tween 80/D5W (5:5:2:88, v/v/v/v)). For intravenous administration, each drug was administered to 9 animals (female ICR mice, provided by Chengdu Dossy Experimental Animal Co., Ltd.) at a dose of 1 mg/kg (drug volume of 10 mL/kg, drug concentration of 0.1 mg/mL). After administration, samples were alternately collected from three animals of each group at time points of 5 min, 15 min, 30 min, 1 h, 2 h, 4 h, 8 h, 12 h, and 24 h. For oral gavage, each drug was administered to 9 animals (female ICR mice) at a dose of 3 mg/kg (drug volume of 10 mL/kg, drug concentration of 0.3 mg/mL). After administration, samples are alternately collected from three animals of each group at time points of 15 min, 30 min, 1 h, 2 h, 4 h, 6 h, 8 h, 12 h, and 24 h. The samples were anticoagulated with EDTA-K2 and centrifuged at 4° C. for 5 min to separate the plasma. The plasma samples were vortexed and mixed. A suitable amount of internal standard working solution was added to the 96-well plate containing samples used for plotting standard curve, samples used for quality control, or samples to be tested; A suitable amount of methanol was added to the blank sample, vortexed and mixed thoroughly, and then centrifuged for 15 min before the supernatant was collected and injected to LC-MS/MS for analysis. The plasma concentration at each time point was used to calculate the main pharmacokinetic parameters using the Winnolin 8.3 non-compartmental model.
In data set [2] the test system is MCF-7 breast cancer cells. Put plainly: Pharmacodynamic experiment in mouse models of human breast cancer (MCF-7 tumors). As to conditions: dose 10 mg/kg, once-daily oral gavage. The class given is in vivo, NOD/SCID female mice. The method, then:
MCF-7 breast cancer cells were cultured in MEM medium containing 10% FBS, 0.01 mM NEAA, and 10 µg/mL insulin. MCF-7 cells in the exponential growth phase were collected and resuspended in PBS to a suitable concentration for subcutaneous injection into mice. The experimental animals were NOD/SCID female mice (purchased from GemPharmatech Co. Itd, Jiangsu). Before inoculation of tumor cells, a 0.36 mg/60-day slow-release estrogen tablet (17β-estradiol, Innovative Research of America, Sarasota, Florida, USA) was subcutaneously implanted on the right side of the back of the experimental animals. The day after estrogen tablet implantation, 2×10^7 MCF-7 cells were inoculated into the right mammary fatty pad of the experimental mice, wherein the cells were resuspended in PBS and Matrigel (1:1) (0.2 mL/mouse). The tumor growth was regularly observed.
When the tumors in the tumor-bearing mice grew to an average volume of approximately 245.56 mm^3, they were randomly grouped for administration based on tumor size. Grouping was performed using StudyDirector™ (version 3.1.399.19, supplier Studylog System, Inc., S. San Francisco, CA, USA). […]
After starting drug administration, the body weight and tumor size of mice were measured twice a week. […] The raw data were directly imported into the software after being measured using a balance and vernier caliper. […]

By half-life is commonly meant the time in which the quantity being followed falls by half. A higher half-life goes with slow decline. As usually defined, the AUC(0-inf) is the area under the concentration-time curve extrapolated to infinity. A lower AUC(0-inf) goes with low exposure. Compound `O=C1CCC(N2Cc3cc(N4CCN(CC5CCN(c6ccc([C@@H]7c8ccc(O)cc8CC[C@@H]7c7ccccc7)cc6)CC5)CC4)ccc3C2=O)C(=O)N1` (stereo partly shown) [Control compound X, reference compound] showed a half-life in data set [1] of 2.3 h. This compound came in with an area under the curve AUC(0-inf) in data set [1] (AUCinf (μg*h/mL), oral administration 3 mg/kg, female ICR mice) of 1300 ng·h/mL. In addition, the “TGI (tumor growth inhibition)” value in data set [2] (day 28) was 29%. The compound further had an average tumor volume in data set [2] (end of experiment (day 28)) of 362 mm^3.
